Reference: ChEMBL document CHEMBL3885861, “Open TG-GATES”

Species on record: Rattus norvegicus
Assay: Open TG-GATES - Regimen: Daily Repeat
Format: toxicity, organism-based, Sprague-Dawley
Parameters: regimen Daily Repeat, gender Male, age 6 weeks
Conditions: in vivo, sc, 0.02 mg/kg, route subcutaneous injection, dose 20 ug/Kg, dose level Middle; for APTT / Bas / Eos / Fbg / Hb / Ht / Lym / MCH / MCHC / MCV / Mono / Neu / PT / Plat / RBC / Ret / WBC: tissue Blood; for KIDNEY_L / KIDNEY_R / KIDNEY_TOTAL: tissue Kidney; for LIVER: tissue Liver; for A/G / ALP / ALT / AST / BUN / CRE / Ca / Cl / DBIL / GLC / IP / K / LDH / Na / PL / RALB / TBIL / TC / TG / TP / gamma-GTP: tissue Plasma

CC(=O)O.N=C(N)NCCC[C@@H](NC(=O)[C@@H]1CCCN1C(=O)[C@@H]1CSSCCC(=O)N[C@@H](Cc2ccc(O)cc2)C(=O)N[C@@H](Cc2ccccc2)C(=O)N[C@@H](CCC(N)=O)C(=O)N[C@@H](CC(N)=O)C(=O)N1)C(=O)NCC(N)=O [DESMOPRESSIN ACETATE]
TERMINAL_BW (72 h, time 3 day): 235.6 g
APTT (72 h, time 3 day): 16.2 s
Bas (72 h, time 3 day): 0%
Eos (72 h, time 3 day): 1%
Fbg (72 h, time 3 day): 270.4 mg/dL
Hb (72 h, time 3 day): 13.3 g/dL
Ht (72 h, time 3 day): 40.4%
Lym (72 h, time 3 day): 69.8%
MCH (72 h, time 3 day): 21.6 pg
MCHC (72 h, time 3 day): 32.8%
MCV (72 h, time 3 day): 65.8 fL
Mono (72 h, time 3 day): 8.6%
Neu (72 h, time 3 day): 20.6%
PT (72 h, time 3 day): 11.8 s
Plat (72 h, time 3 day): 123.6 x10_4/uL
RBC (72 h, time 3 day): 613.8 x10_4/ul
Ret (72 h, time 3 day): 8%
WBC (72 h, time 3 day): 99.6 x10_2/uL
KIDNEY_L (72 h, time 3 day): 1.1 g
KIDNEY_R (72 h, time 3 day): 1.1 g
KIDNEY_TOTAL (72 h, time 3 day): 2.2 g
LIVER (72 h, time 3 day): 10.9 g
A/G (72 h, time 3 day): 2
ALP (72 h, time 3 day): 1305 IU/L
ALT (72 h, time 3 day): 39 IU/L
AST (72 h, time 3 day): 72.8 IU/L
BUN (72 h, time 3 day): 16.2 mg/dL
CRE (72 h, time 3 day): 0.4 mg/dL
Ca (72 h, time 3 day): 11.4 mg/dL
Cl (72 h, time 3 day): 103 meq/L
DBIL (72 h, time 3 day): 0.012 mg/dL
GLC (72 h, time 3 day): 193 mg/dL
IP (72 h, time 3 day): 7.9 mg/dL
K (72 h, time 3 day): 5.3 meq/L
LDH (72 h, time 3 day): 205.2 IU/L
Na (72 h, time 3 day): 135 meq/L
PL (72 h, time 3 day): 157.2 mg/dL
RALB (72 h, time 3 day): 3.8 g/dL
TBIL (72 h, time 3 day): 0.04 mg/dL
TC (72 h, time 3 day): 87.6 mg/dL
TG (72 h, time 3 day): 108.8 mg/dL
TP (72 h, time 3 day): 5.7 g/dL
gamma-GTP (72 h, time 3 day): 1 IU/L
TERMINAL_BW ([…], time 7 day): 276.7 g
TERMINAL_BW ([…], time 14 day): 325 g
TERMINAL_BW ([…], time 28 day): 428.4 g
APTT ([…], time 7 day): 16.6 s
Bas ([…], time 7 day): 0%
Eos ([…], time 7 day): 1.2%
Fbg ([…], time 7 day): 263.2 mg/dL
Hb ([…], time 7 day): 13 g/dL
Ht ([…], time 7 day): 39.8%
Lym ([…], time 7 day): 72.2%
MCH ([…], time 7 day): 20.8 pg
MCHC ([…], time 7 day): 32.7%
MCV ([…], time 7 day): 63.6 fL
Mono ([…], time 7 day): 6.8%
Neu ([…], time 7 day): 20%
PT ([…], time 7 day): 12.2 s
Plat ([…], time 7 day): 125.6 x10_4/uL
RBC ([…], time 7 day): 627 x10_4/ul
Ret ([…], time 7 day): 7.1%
WBC ([…], time 7 day): 114 x10_2/uL
APTT ([…], time 14 day): 17.5 s
Bas ([…], time 14 day): 0%
Eos ([…], time 14 day): 1.2%
Fbg ([…], time 14 day): 253.6 mg/dL
Hb ([…], time 14 day): 14.2 g/dL
Ht ([…], time 14 day): 43.2%
Lym ([…], time 14 day): 72%
MCH ([…], time 14 day): 20 pg
MCHC ([…], time 14 day): 32.8%
MCV ([…], time 14 day): 60.9 fL
Mono ([…], time 14 day): 10.6%
Neu ([…], time 14 day): 16.6%
PT ([…], time 14 day): 12.2 s
Plat ([…], time 14 day): 123.2 x10_4/uL
RBC ([…], time 14 day): 710.2 x10_4/ul
Ret ([…], time 14 day): 6%
WBC ([…], time 14 day): 101.6 x10_2/uL
APTT ([…], time 28 day): 16.7 s
Bas ([…], time 28 day): 0%
Eos ([…], time 28 day): 0.8%
Fbg ([…], time 28 day): 250 mg/dL
Hb ([…], time 28 day): 15 g/dL
Ht ([…], time 28 day): 46.3%
Lym ([…], time 28 day): 75.8%
MCH ([…], time 28 day): 19.3 pg
MCHC ([…], time 28 day): 32.5%
MCV ([…], time 28 day): 59.4 fL
Mono ([…], time 28 day): 6%
Neu ([…], time 28 day): 17.4%
PT ([…], time 28 day): 11.8 s
Plat ([…], time 28 day): 112 x10_4/uL
RBC ([…], time 28 day): 780.2 x10_4/ul
Ret ([…], time 28 day): 3.5%
WBC ([…], time 28 day): 128.4 x10_2/uL
KIDNEY_L ([…], time 7 day): 1.2 g
KIDNEY_R ([…], time 7 day): 1.2 g
KIDNEY_TOTAL ([…], time 7 day): 2.5 g
KIDNEY_L ([…], time 14 day): 1.3 g
KIDNEY_R ([…], time 14 day): 1.4 g
KIDNEY_TOTAL ([…], time 14 day): 2.7 g
KIDNEY_L ([…], time 28 day): 1.7 g
KIDNEY_R ([…], time 28 day): 1.7 g
KIDNEY_TOTAL ([…], time 28 day): 3.4 g
LIVER ([…], time 7 day): 12.1 g
LIVER ([…], time 14 day): 13.4 g
LIVER ([…], time 28 day): 16.1 g
A/G ([…], time 7 day): 2
ALP ([…], time 7 day): 1103 IU/L
ALT ([…], time 7 day): 29.6 IU/L
AST ([…], time 7 day): 69.6 IU/L
BUN ([…], time 7 day): 15.4 mg/dL
CRE ([…], time 7 day): 0.4 mg/dL
Ca ([…], time 7 day): 13.4 mg/dL
Cl ([…], time 7 day): 100.2 meq/L
DBIL ([…], time 7 day): 0.01 mg/dL
GLC ([…], time 7 day): 201 mg/dL
IP ([…], time 7 day): 7.9 mg/dL
K ([…], time 7 day): 5.1 meq/L
LDH ([…], time 7 day): 160.2 IU/L
Na ([…], time 7 day): 130.8 meq/L
PL ([…], time 7 day): 138 mg/dL
RALB ([…], time 7 day): 3.6 g/dL
TBIL ([…], time 7 day): 0.042 mg/dL
TC ([…], time 7 day): 75.8 mg/dL
TG ([…], time 7 day): 95 mg/dL
TP ([…], time 7 day): 5.5 g/dL
gamma-GTP ([…], time 7 day): 1 IU/L
A/G ([…], time 14 day): 1.8
ALP ([…], time 14 day): 1136 IU/L
ALT ([…], time 14 day): 29.4 IU/L
AST ([…], time 14 day): 68.2 IU/L
BUN ([…], time 14 day): 17.8 mg/dL
CRE ([…], time 14 day): 0.4 mg/dL
Ca ([…], time 14 day): 10.6 mg/dL
Cl ([…], time 14 day): 105.8 meq/L
DBIL ([…], time 14 day): 0.014 mg/dL
GLC ([…], time 14 day): 190.6 mg/dL
IP ([…], time 14 day): 7.3 mg/dL
K ([…], time 14 day): 5.3 meq/L
LDH ([…], time 14 day): 133.8 IU/L
Na ([…], time 14 day): 138.4 meq/L
PL ([…], time 14 day): 130.6 mg/dL
RALB ([…], time 14 day): 3.7 g/dL
TBIL ([…], time 14 day): 0.032 mg/dL
TC ([…], time 14 day): 65.2 mg/dL
TG ([…], time 14 day): 109.4 mg/dL
TP ([…], time 14 day): 5.7 g/dL
gamma-GTP ([…], time 14 day): 1 IU/L
A/G ([…], time 28 day): 1.6
ALP ([…], time 28 day): 834.8 IU/L
ALT ([…], time 28 day): 27.4 IU/L
AST ([…], time 28 day): 65 IU/L
BUN ([…], time 28 day): 18 mg/dL
CRE ([…], time 28 day): 0.4 mg/dL
Ca ([…], time 28 day): 9.1 mg/dL
Cl ([…], time 28 day): 104.2 meq/L
DBIL ([…], time 28 day): 0.014 mg/dL
GLC ([…], time 28 day): 190 mg/dL
IP ([…], time 28 day): 6.7 mg/dL
K ([…], time 28 day): 4.9 meq/L
LDH ([…], time 28 day): 143.8 IU/L
Na ([…], time 28 day): 137.6 meq/L
PL ([…], time 28 day): 135.2 mg/dL
RALB ([…], time 28 day): 3.7 g/dL
TBIL ([…], time 28 day): 0.048 mg/dL
TC ([…], time 28 day): 69.4 mg/dL
TG ([…], time 28 day): 107.8 mg/dL
TP ([…], time 28 day): 6.1 g/dL
gamma-GTP ([…], time 28 day): 0.4 IU/L
